Experimental data: patent US20120264735A1 (priority 2009, published 2012)

Biological target: T1, c-Met kinase (recombinant c-Met) (Homo sapiens, UniProt P08581)
T1 construct: 0.27 nM recombinant c-Met
Assay: In vitro kinase assay I (homogeneous time-resolved fluorescence tyrosine kinase assay)
Format: biochemical
Protocol: The kinase activities of c-Met are measured using a modified version of the homogeneous-time-resolved tyrosine kinase assay described by Park et al. (1999, Anal. Biochem. 269:94-104).
The procedure for determining the potency of a compound to inhibit c-Met kinase comprises the following steps: • 1. Prepare 3-fold serial diluted compound solutions in 100% dimethyl sulfoxide (DMSO) at 20× of the desired final concentrations in a 384-well plate. • 2. Prepare a master reaction mix containing 6.67 mM MgCl2, 133.3 mM NaCl, 66.7 mM Tris-HCl (pH 7.4), 0.13 mg/ml BSA, 2.67 mM dithiothreitol, 0.27 nM recombinant c-Met and 666.7 nM biotinylated synthetic peptide substrate (biotin-ahx-EQEDEPEGDYFEWLE-CONH2) (SEQ.ID.NO.:1). • 3. In a black assay plate, add 1.5 μl of compound solution (or DMSO) and 22.5 μl of master reaction mix per well. Initiate the kinase reaction by adding 6 μl of 0.25 mM MgATP per well. Allow the reactions to proceed for 60 min at room temperature. The final conditions for the reaction are 0.2 nM c-Met, 0.5 μM substrate, 50 μM MgATP, 5 mM MgCl2, 100 mM NaCl, 2 mM DTT, 0.1 mg/ml BSA, 50 mM Tris (pH 7.4) and 5% DMSO. • 4. Stop the kinase reaction with 30 μl of Stop/Detection buffer containing 10 mM EDTA, 25 mM HEPES, 0.1% TRITON X-100, 0.750 nM Eu-chelate labeled anti-phosphotyrosine antibody PY20 (cat. #AD0067, PerkinElmer) and 50 μg/ml Streptavidin-allophycocyanin conjugate (cat. #PJ25S, Prozyme). • 5. Read HTRF signals on a Victor reader (PerkinElmer) in HTRF mode after 60-min incubation at room temperature in the dark. • 6. IC50 is determined by fitting the observed relationship between compound concentration and HTRF signal with a 4-parameter logistic equation. II. GTL-16 pY1349 Cell-Based Assay

T1 sequence (P08581 25-1390): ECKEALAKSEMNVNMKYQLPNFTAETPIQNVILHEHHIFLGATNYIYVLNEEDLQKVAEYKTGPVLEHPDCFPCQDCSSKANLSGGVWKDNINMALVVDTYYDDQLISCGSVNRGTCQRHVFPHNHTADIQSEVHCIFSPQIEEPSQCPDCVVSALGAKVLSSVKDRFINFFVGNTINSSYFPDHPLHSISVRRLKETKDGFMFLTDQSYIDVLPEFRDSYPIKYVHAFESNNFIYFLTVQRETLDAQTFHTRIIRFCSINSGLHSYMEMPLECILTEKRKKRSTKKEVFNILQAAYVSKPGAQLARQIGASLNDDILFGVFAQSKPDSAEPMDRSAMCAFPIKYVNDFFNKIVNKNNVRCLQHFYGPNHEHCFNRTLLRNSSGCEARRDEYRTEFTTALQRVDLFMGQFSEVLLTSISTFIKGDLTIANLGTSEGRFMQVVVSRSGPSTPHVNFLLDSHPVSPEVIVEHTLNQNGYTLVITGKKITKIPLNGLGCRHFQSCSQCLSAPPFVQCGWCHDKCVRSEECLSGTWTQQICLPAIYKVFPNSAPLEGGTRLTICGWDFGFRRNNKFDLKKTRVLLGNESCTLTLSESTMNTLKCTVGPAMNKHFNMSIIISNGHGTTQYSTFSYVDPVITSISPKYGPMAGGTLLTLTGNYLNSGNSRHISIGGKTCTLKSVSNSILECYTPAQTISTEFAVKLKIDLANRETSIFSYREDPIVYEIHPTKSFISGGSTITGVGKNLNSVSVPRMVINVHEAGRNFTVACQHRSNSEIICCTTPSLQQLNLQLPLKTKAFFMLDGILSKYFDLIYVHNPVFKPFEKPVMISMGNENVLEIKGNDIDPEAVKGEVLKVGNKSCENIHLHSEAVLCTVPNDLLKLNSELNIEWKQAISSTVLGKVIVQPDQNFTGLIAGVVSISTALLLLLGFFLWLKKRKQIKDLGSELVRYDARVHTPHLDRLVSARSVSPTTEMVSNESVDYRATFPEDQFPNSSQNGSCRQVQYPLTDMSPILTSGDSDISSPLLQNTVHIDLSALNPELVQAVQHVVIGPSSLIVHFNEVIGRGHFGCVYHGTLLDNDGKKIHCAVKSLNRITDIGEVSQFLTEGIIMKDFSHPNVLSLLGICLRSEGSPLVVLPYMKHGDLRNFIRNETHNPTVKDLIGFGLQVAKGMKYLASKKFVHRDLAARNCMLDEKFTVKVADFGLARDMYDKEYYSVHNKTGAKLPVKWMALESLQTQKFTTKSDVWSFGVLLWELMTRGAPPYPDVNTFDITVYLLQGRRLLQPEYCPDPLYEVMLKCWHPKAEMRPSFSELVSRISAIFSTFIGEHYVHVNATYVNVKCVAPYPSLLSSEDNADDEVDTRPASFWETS

IC50 | SMILES
< 100 nM | Cn1cc(-n2ccc(=O)c(Cc3cccc(-c4ncc(N5CCC6CCCCC6C5)cn4)c3)n2)cn1 (mixture of isomers) [Example 443, 1-(1-methyl-1H-pyrazol-4-yl)-3-{3-[5-(octahydroiso-quinolin-2(1H)-yl)pyrimidin-2-yl]benzyl}pyridazin-4(1H)-one]
< 100 nM | CC1CC1COC(=O)Nc1cccc(Cc2nn(-c3cnn(C)c3)ccc2=O)c1 (mixture of isomers) [Example 574, (2-methylcyclopropyl)methyl (3-{[1-(1-methyl-1H-pyrazol-4-yl)-4-oxo-1,4-dihydropyridazin-3-yl]methyl}phenyl)carbamate]
< 100 nM | Cn1cc(-n2ccc(=O)c(Cc3ccc4ncc(OCC5CCOC5)cc4c3)n2)cn1 (racemic) [Example 64, rac-1-(1-methyl-1H-pyrazol-4-yl)-3-{[3-(tetrahydrofuran-3-ylmethoxy)quinolin-6-yl]methyl}pyridazin-4(1H)-one]
< 100 nM | Cn1cc(-n2ccc(=O)c(Cc3cccc(-c4ncn(CC5CCOC5)n4)c3)n2)cn1 (racemic) [Example 79, rac-1-(1-methyl-1H-pyrazol-4-yl)-3-{3-[1-(tetrahydrofuran-3-ylmethyl)-1H-1,2,4-triazol-3-yl]benzyl}pyridazin-4(1H)-one]
< 100 nM | CCOC(=O)Nc1cccc(Cc2nn(-c3cnn(C4CCOC4)c3)ccc2=O)c1 (racemic) [Example 97, rac-ethyl [3-({4-oxo-1-[1-(tetrahydrofuran-3-yl)-1H-pyrazol-4-yl]-1,4-dihydropyridazin-3-yl}methyl)phenyl]carbamate]
< 100 nM | CCCOC(=O)Nc1cccc(Cc2nn(-c3cnn(C4CCOC4)c3)ccc2=O)c1 (racemic) [Example 98, rac-propyl [3-({4-oxo-1-[1-(tetrahydrofuran-3-yl)-1H-pyrazol-4-yl]-1,4-dihydropyridazin-3-yl}methyl)phenyl]carbamate]
< 100 nM | CC(C)COC(=O)Nc1cccc(Cc2nn(-c3cnn(C4CCOC4)c3)ccc2=O)c1 (racemic) [Example 99, rac-2-methylpropyl [3-({4-oxo-1-[1-(tetrahydrofuran-3-yl)-1H-pyrazol-4-yl]-1,4-dihydropyridazin-3-yl}methyl)phenyl]carbamate]
< 100 nM | N#Cc1cncc(-n2ccc(=O)c(Cc3cccc(NC(=O)OCC4CCOC4)c3)n2)c1 (racemic) [Example 130, rac-tetrahydrofuran-3-ylmethyl (3-{[1-(5-cyanopyridin-3-yl)-4-oxo-1,4-dihydropyridazin-3-yl]methyl}phenyl)carbamate]
< 100 nM | N#Cc1cc(F)cc(-n2ccc(=O)c(Cc3cccc(NC(=O)OCC4CCOC4)c3)n2)c1 (racemic) [Example 131, rac-tetrahydrofuran-3-ylmethyl (3-{[1-(3-cyano-5-fluorophenyl)-4-oxo-1,4-dihydropyridazin-3-yl]methyl}phenyl)carbamate]
< 100 nM | N#Cc1ccc(-n2ccc(=O)c(Cc3cccc(NC(=O)OCC4CCOC4)c3)n2)cc1 (racemic) [Example 139, rac-tetrahydrofuran-3-ylmethyl (3-{[1-(4-cyanophenyl)-4-oxo-1,4-dihydropyridazin-3-yl]methyl}phenyl)carbamate]
< 100 nM | N#Cc1cc(Cl)cc(-n2ccc(=O)c(Cc3cccc(NC(=O)OCC4CCOC4)c3)n2)c1 (racemic) [Example 141, rac-tetrahydrofuran-3-ylmethyl (3-{[1-(3-chloro-5-cyanophenyl)-4-oxo-1,4-dihydropyridazin-3-yl]methyl}phenyl)carbamate]
100 to 1000 nM | COC(C)c1cnc(-c2cccc(Cc3nn(-c4cnn(C)c4)ccc3=O)c2)nc1 (racemic) [Example 166, rac-3-{3-[5-(1-methoxyethyl)pyrimidin-2-yl]benzyl}-1-(1-methyl-1H-pyrazol-4-yl)pyridazin-4(1H)-one]
< 100 nM | Cn1cc(-n2ccc(=O)c(Cc3cccc(-c4ncc(C5C=CCO5)cn4)c3)n2)cn1 (racemic) [Example 174, rac-3-{3-[5-(2,5-Dihydrofuran-2-yl)pyrimidin-2-yl]benzyl}-1-(1-methyl-1H-pyrazol-4-yl)pyridazin-4(1H)-one]
< 100 nM | Cn1cc(-n2ccc(=O)c(Cc3cccc(-c4ncc(C5CCCO5)cn4)c3)n2)cn1 (racemic) [Example 198, rac-1-(1-Methyl-1H-pyrazol-4-yl)-3-{3-[5-(tetrahydrofuran-2-yl)pyrimidin-2-yl]benzyl}pyridazin-4(1H)-one]
< 100 nM | CCOCc1cnc(-c2cccc(C(C)c3nn(-c4cnn(C)c4)ccc3=O)c2)nc1 (racemic) [Example 221, rac-3-(1-{3-[5-(ethoxymethyl)pyrimidin-2-yl]phenyl}ethyl)-1-(1-methyl-1H-pyrazol-4-yl)pyridazin-4(1H)-one]
< 100 nM | CCOc1cnc(-c2cccc(C(C)c3nn(-c4cccc(C#N)c4)ccc3=O)c2)nc1 (racemic) [Example 224, rac-3-[3-{1-[3-(5-ethoxypyrimidin-2-yl)phenyl]ethyl}-4-oxopyridazin-1(4H)-yl]benzonitrile]
< 100 nM | CCC(c1cccc(-c2ncc(OC)cn2)c1)c1nn(-c2cnn(C)c2)ccc1=O (racemic) [Example 225, rac-3-{1-[3-(5-methoxypyrimidin-2-yl)phenyl]propyl}-1-(1-methyl-1H-pyrazol-4-yl)pyridazin-4(1H)-one]
1000 to 3000 nM | COCCOc1cnc(-c2cccc(C(CCO)c3nn(-c4cnn(C)c4)ccc3=O)c2)nc1 (racemic) [Example 253, rac-3-(3-Hydroxy-1-{3-[5-(2-methoxyethoxy)pyrimidin-2-yl]phenyl}propyl)-1-(1-methyl-1H-pyrazol-4-yl)pyridazin-4(1H)-one]
1000 to 3000 nM | COc1cnc(-c2cccc(C(CO)c3nn(-c4cnn(C)c4)ccc3=O)c2)nc1 (racemic) [Example 254, rac-3-{2-Hydroxy-1-[3-(5-methoxypyrimidin-2-yl)phenyl]ethyl}-1-(1-methyl-1H-pyrazol-4-yl)pyridazin-4(1H)-one]
< 100 nM | Cn1cc(-n2ccc(=O)c(Cc3cccc(-c4ncc(OCC5CCCO5)cn4)c3)n2)cn1 (racemic) [Example 260, rac-1-(1-methyl-1H-pyrazol-4-yl)-3-{3-[5-(tetrahydrofuran-2-ylmethoxy)pyrimidin-2-yl]benzyl}pyridazin-4(1H)-one]
< 100 nM | Cn1cc(-n2ccc(=O)c(Cc3cccc(-c4ncc(OCC5CCOC5)cn4)c3)n2)cn1 (racemic) [Example 266, rac-1-(1-methyl-1H-pyrazol-4-yl)-3-{3-[5-(tetrahydrofuran-3-ylmethoxy)pyrimidin-2-yl]benzyl}pyridazin-4(1H)-one]
< 100 nM | Cn1cc(-n2ccc(=O)c(Cc3cccc(-c4ncc(OCC5CCOC(C)(C)C5)cn4)c3)n2)cn1 (racemic) [Example 269, rac-3-(3-{5-[(2,2-dimethyltetrahydro-2H-pyran-4-yl)methoxy]pyrimidin-2-yl}benzyl)-1-(1-methyl-1H-pyrazol-4-yl)pyridazin-4(1H)-one]
< 100 nM | Cn1cc(-n2ccc(=O)c(Cc3cccc(-c4ncc(OC5CCOC5)cn4)c3)n2)cn1 (racemic) [Example 276, rac-1-(1-methyl-1H-pyrazol-4-yl)-3-{3-[5-(tetrahydrofuran-3-yloxy)pyrimidin-2-yl]benzyl}pyridazin-4(1H)-one]
< 100 nM | CCn1cc(-n2ccc(=O)c(Cc3cccc(-c4ncc(OCC5CCO5)cn4)c3)n2)cn1 (racemic) [Example 308, rac-1-(1-ethyl-1H-pyrazol-4-yl)-3-{3-[5-(oxetan-2-ylmethoxy)pyrimidin-2-yl]benzyl}pyridazin-4(1H)-one]
< 100 nM | CCn1cc(-n2ccc(=O)c(Cc3cccc(-c4ncc(OC5CCOC5)cn4)c3)n2)cn1 (racemic) [Example 309, rac-1-(1-ethyl-1H-pyrazol-4-yl)-3-{3-[5-(tetrahydrofuran-3-yloxy)pyrimidin-2-yl]benzyl}pyridazin-4(1H)-one]
< 100 nM | CCn1cc(-n2ccc(=O)c(Cc3cccc(-c4ncc(OCC5CCCO5)cn4)c3)n2)cn1 (racemic) [Example 310, rac-1-(1-ethyl-1H-pyrazol-4-yl)-3-{3-[5-(tetrahydrofaran-2-ylmethoxy)pyrimidin-2-yl]benzyl}pyridazin-4(1H)-one]
< 100 nM | CCn1cc(-n2ccc(=O)c(Cc3cccc(-c4ncc(OCC5COCCO5)cn4)c3)n2)cn1 (racemic) [Example 311, rac-3-{3-[5-(1,4-dioxan-2-ylmethoxy)pyrimidin-2-yl]benzyl}-1-(1-ethyl-1H-pyrazol-4-yl)pyridazin-4(1H)-one]
< 100 nM | O=c1ccn(-c2ccc(F)c(F)c2)nc1Cc1cccc(-c2ncc(OC3CCOC3)cn2)c1 (racemic) [Example 327, rac-1-(3,4-difluorophenyl)-3-{3-[5-(tetrahydrofuran-3-yloxy)pyrimidin-2-yl]benzyl}pyridazin-4(1H)-one]
